Experimental data from patent publication US11672792B2, “Topical formulations comprising montelukast and combinations with mussel adhesive proteins” (ENLITISA (SHANGHAI) PHARMACEUTICAL CO., LTD, priority 2017, dated 2023).
Where “and” joins values, the source holds several entries; their conditions need not be identical. Equal values may be shown once.

Assays:
in vivo = conditions: Sprague Dawley, rat, skin (unscalded intact, full thickness), topical, 1 g montelukast cream
[1] = test system: full thickness skin wounds; test: Acute Wound Model (Example 6); format: in vivo, C57BL/6 mice; conditions: for Hyp content (μg/mg tissue weight), single animals / Hyp content, Mean (n = 4): wound tissue
Description: 6-8 weeks old male C57BL/6 mice were supplied by Changzhou Cvens Experimental Animal Co. Ltd. Prior to any experiments being conducted, mice were housed under standardized conditions (at a constant temperature or 22±2° C., with alternating 12 hour periods of light and darkness), and were fed on a standard mouse diet with water, for about a week. […] The hair on the back was shaved by a baby hair shaver and depilated with cream. […] EMS skin biopsy punch (Electron Microscopy Sciences, P.O. […] Full thickness skin was removed and the depth reached the fascia. The wounds left open without suture. […] The model group was given same amount of normal saline. Recombinant Human Epidermal Growth Factor (rhEGF, Shanghai Haohai Biological Technology Co. Ltd, Shanghai, China) was purchased and prepared according to the manufacturer's instructions. Lyophilized rhEGF powder (100000 IU/vial) was dissolved in 20 mL of normal saline to make a solution with a 5000 IU/mL concentration. […] MedChemExpress, MCE China, Shanghai, China) was obtained in a powder form and was dissolved in ultrapure water to obtain solutions with concentrations as described in Table 22 (L, M and H indicate low, medium and high montelukast doses, respectively) Wounds were wrapped up with transparent dresser after drug administration. Photographs were taken for each wound every other day from Day 0. Photos were scanned into a computer, and wound areas calculated using ImageJ image analysis software (National Institutes of Health, […]). The unhealed wound area was expressed as a percentage of the original wound area: At/A0×100%, where A0 and At refer to the initial area at Day 0 and the wound area at the date of measurement (time t), respectively. […] Half of the tissue was preserved in 10% neutral buffered formalin (Nanchang […] Experimental Equipment Co., Ltd., Nanchang, […] Provence, China), and analyzed by histological embedding in paraffin wax, sectioning and staining. HE and Masson stained paraffin sections were analyzed under an optical microscope. Skin regeneration, fibroblastic proliferation, collagen regeneration scores and inflammation scores were estimated. The rest of the samples were stored at -80° C. for further analysis. […] The supernatant was collected, and the extracted protein was used for ELISA analysis using standard ELISA test kits and an ELISA reader (SH-1000 Hitachi, Japan). […] (Beijing, China).

concentration at 0 h (in vivo): 0 ng/g | concentration at 1 h (in vivo): 36700 ng/g | concentration at 2 h (in vivo): 68000 ng/g | concentration at 3 h (in vivo): 13400 ng/g | concentration at 6 h (in vivo): 15600 ng/g | concentration at 8 h (in vivo): 55300 ng/g
SMILES: CC(C)(O)c1ccccc1CC[C@@H](SCC1(CC(=O)O)CC1)c1cccc(/C=C/c2ccc3ccc(Cl)cc3n2)c1 [Mon, Montelukast sodium]
remaining wound area versus the initial wound ([1]; Day 2, Mon H 200 μg/wound): 76.11 ± 6.40% | remaining wound area versus the initial wound ([1]; Day 2, Mon L 50 μg/wound once daily topically): 78.41 ± 9.51% | remaining wound area versus the initial wound ([1]; Day 2, Mon M 100 μg/wound): 79.97 ± 11.79% | improvement rate (wound healing) ([1]; Day 4, Mon H 200 μg/wound): about 39% | remaining wound area versus the initial wound ([1]; Day 4, Mon H 200 μg/wound): 48.60 ± 6.49% | remaining wound area versus the initial wound ([1]; Day 4, Mon L 50 μg/wound): 57.59 ± 11.54% | remaining wound area versus the initial wound ([1]; Day 4, Mon M 100 μg/wound): 55.09 ± 8.83% | remaining wound area versus the initial wound ([1]; Day 6, Mon H 200 μg/wound): 29.13 ± 6.16% | remaining wound area versus the initial wound ([1]; Day 6, Mon L 50 μg/wound): 27.53 ± 3.76% | remaining wound area versus the initial wound ([1]; Day 6, Mon M 100 μg/wound): 28.51 ± 1.03% | remaining wound area versus the initial wound ([1]; Day 8, Mon H 200 μg/wound): 14.59 ± 3.04% | remaining wound area versus the initial wound ([1]; Day 8, Mon L 50 μg/wound): 14.08 ± 2.85% | remaining wound area versus the initial wound ([1]; Day 8, Mon M 100 μg/wound): 13.87 ± 3.51% | remaining wound area versus the initial wound ([1]; Day 12, Mon H 200 μg/wound): 2.48 ± 3.43% | remaining wound area versus the initial wound ([1]; Day 12, Mon L 50 μg/wound): 1.15 ± 2.29% | remaining wound area versus the initial wound ([1]; Day 12, Mon M 100 μg/wound): 2.15 ± 3.73% | Hyp content (μg/mg tissue weight), single animals ([1]; Mon H 200 μg/wound): 4.62 μg/mg tissue weight and 5.83 μg/mg tissue weight and 3.99 μg/mg tissue weight and 4.64 μg/mg tissue weight | Hyp content, Mean (n = 4) ([1]; Mon H 200 μg/wound): 4.77 μg/mg tissue weight | Hyp content (μg/mg tissue weight), single animals ([1]; Mon L 50 μg/wound): 4.65 μg/mg tissue weight and 4.41 μg/mg tissue weight and 6.71 μg/mg tissue weight and 6.05 μg/mg tissue weight | Hyp content, Mean (n = 4) ([1]; Mon L 50 μg/wound): 5.46 μg/mg tissue weight | Hyp content (μg/mg tissue weight), single animals ([1]; Mon M 100 μg/wound): 4.94 μg/mg tissue weight and 4.18 μg/mg tissue weight and 6.80 μg/mg tissue weight and 4.98 μg/mg tissue weight | Hyp content, Mean (n = 4) ([1]; Mon M 100 μg/wound): 5.23 μg/mg tissue weight
